SMILES strings stand for the structures. pKd: −log10 of the molar value. Where “and” joins values, the source holds several entries; their conditions need not be identical. Identical values can stand only once. A value given as a limit tells only on which side of the number the result lay.

The results in this text go back to article PMC8092209, “Structural Basis of Ligand Selectivity by a Bacterial Adhesin Lectin Involved in Multispecies Biofilm Formation” (mBio, 2021).

Test [1] has as its system FITC-labeled MpPA14 binding to the diatom Chaetoceros neogracile. The test can be described thus: Diatom binding experiment with FITC-MpPA14. It counts as cell-based. An excerpt: C. neogracile is a psychrophilic marine diatom found in Antarctic waters ([50]). […] Each diatom cell has 1 to 4 projections protruding from the corners. Given its photosynthetic capability, C. neogracile contains chlorophyll that is intrinsically fluorescent. […] We reason that glycans coating the diatom cell membrane present numerous end group binding sites in close proximity that can serve as a “molecular Velcro” for MpPA14 binding ([30]).
The Antarctic diatom, Chaetoceros neogracile, was cultured as previously described ([21], [50]). FITC-labeled MpPA14 or VcPA14 (FITC-MpPA14 or FITC-VcPA14, 0.2 mg/ml) in the presence or absence of sugars was incubated with diatoms in buffer (50 mM Tris-HCl [pH 9], 300 mM NaCl, and 5 mM CaCl2) with gentle mixing for 2 h. Next, diatoms were pelleted by centrifugation for 3 min at 7,000 rpm, and the resulting supernatant was discarded. This procedure was repeated three times to wash away unbound FITC-MpPA14 before the diatom pellet was finally resuspended in 20 μl buffer, which was then used to make slides for fluorescence microscopy. In a separate experiment to test if fucose could compete off the MpPA14 that was already bound to diatoms, FITC-MpPA14 was incubated with diatom for 1.5 h before fucose was added. The rest of the experiment followed the same procedure as described above.
Images were obtained using an Olympus IX83 inverted fluorescence microscope equipped with an Andor Zyla 4.2 Plus camera. Quantification of the fluorescence intensity was done using Fiji ImageJ. The corrected total cell fluorescence (CTCF) was calculated using the following formula: CTCF = integrated density − (area of selected cell × mean fluorescence of the background) ([60]). Quantification of 30 individual diatom cells was done for each treatment. Graphs were made using GraphPad Prism.

The target of test [2] is T1, MpPA14 (Marinomonas primoryensis, UniProt A1YIY3). The test can be described thus: Dextran-based comparative competition assay (MpPA14). It counts as binding. The source says: To gain insight into the binding specificity of MpPA14, we investigated the relative affinity of various monosaccharides for the lectin by a comparative competition assay ([12]). MpPA14 bound to Superdex resin was competitively released into solution by the progressive addition of free sugars. The released protein concentrations measured by absorbance at 280 nm were plotted as a function of free sugar concentration to produce semiquantitative binding curves (Fig. 1A and B). The apparent dissociation constant (Kdapp) calculated from these binding curves was used as a relative measure of affinity for each assayed sugar (Table 1). […] D-Ribose bound […] more strongly than its derivative 2-deoxy-D-ribose (Kdapp of 6.8 mM as opposed to 18 mM; Fig. 1B and Table 1).
(§1) The dextran resin competition assay was performed as previously described for MhPA14 ([12]). Briefly, Superdex 200 (S200) resin was washed twice with 50 mM Tris-HCl (pH 9), 150 mM NaCl, and 5 mM CaCl2. One ml of 1 mg/ml MpPA14 with green fluorescent protein (GFP) fused to its N terminus (GFP-MpPA14) or VcPA14 labeled with FITC was suspended with 300 μl of equilibrated Superdex 200 (S200) resin. Following an incubation period with gentle mixing, the S200 resin bound with GFP-MpPA14 was pelleted by centrifugation. The pellet was washed twice with 50 mM Tris-HCl (pH 9), 150 mM NaCl, and 5 mM CaCl2, and the A280 of the supernatant from the second wash was used as the baseline reading. Next, after resuspension in the same buffer, aliquots of 1.67 μmol saccharide were sequentially added to the solution six or seven times, with the A280 of the supernatant being measured after each addition to quantify the release of lectin. The final addition of saccharide was […]. Data from the dextran affinity assay were plotted using GraphPad Prism after subtracting the background. Next, the data were fitted to a nonlinear regression of one-site-specific binding, which follows the model y/Bmax = x/(Kd + x), with Bmax as the maximum specific binding and Kd as the equilibrium binding constant.

For test [3], the system named is VcPA14. The test can be described thus: Dextran-based comparative competition assay (VcPA14). It counts as binding, Vibrio cholerae. Conditions: FITC-VcPA14 on Superdex 200 resin. As for the experimental part:
(§2) As proof of concept for the antiadhesion strategy that targets microbial pathogens, we studied the VcPA14 lectin domain from a large 6,938-amino-acid RTX adhesin (GenBank accession number WP_154597608) of the cholera-causing bacterium, V. cholerae. As discussed, VcPA14 has a similar ligand-binding site as that of MpPA14 (Fig. S1), with key sugar-binding residues conserved (Fig. S1G).
as §1, with “Data from the dextran affinity assay were plotted using GraphPad Prism after subtracting the background. Next, the data were fitted to a nonlinear regression of one-site-specific binding, which follows the model y/Bmax = x/(Kd + x), with Bmax as the maximum specific binding and Kd as the equilibrium binding constant.” left out

Test [4] deals with T1, MpPA14. The test can be described thus: Isothermal titration calorimetry. It counts as binding. As to conditions: 30°C; for ΔH (enthalpy) / ΔS (entropy) / binding stoichiometry (N value): ITC; for binding stoichiometry (N value): one-binding-site model; for pKd: Kd (dissociation constant, ITC), free sugar in solution. The source says: The ITC measurements produced rectangular hyperbolic curves for all three simple saccharides, and fitted well to a one-binding-site model with calculated binding stoichiometry (N) values being close to 1 ([12], [21]). […] However, this is to be expected, because the dextran beads used in the competition assay have multiple binding sites nearby that attract the lectin, whereas the calorimetry was done with free sugars in solution. […] In general, the affinity of lectins for monosaccharides (Kd values) lies within the high micromolar to millimolar range ([8], [30], [31]). […] Furthermore, negative enthalpy (ΔH) and entropy (ΔS) contributions were calculated for all three carbohydrates when they bound to MpPA14, which indicated the binding was driven primarily by polar interaction such as the formation of hydrogen and ionic bonds rather than by hydrophobic interactions. This was consistent with the observation that the Ca^2+-dependent ligand-binding site of MpPA14 consisted of mainly polar and charged amino acids without any residues with large hydrophobic side chains. We therefore acquired detailed structural information to study MpPA14 ligand recognition.
Isothermal titration calorimetry (ITC) measurements were performed at 30°C with a MicroCal VP-ITC instrument (Malvern). […] Sugars were automatically added by a rotating syringe (400 rpm) at 5-min intervals into the MpPA14 solution for a total of 50 injections. The data were analyzed with Origin software version 5.0 (MicroCal).
A general note: Isothermal titration calorimetry measures the heat released or taken up as one component is titrated into another.

For test [5], the system named is FITC-labeled VcPA14 binding to C. neogracile. As to the kind of experiment: Diatom binding experiment with FITC-VcPA14. The test is classed as cell-based, Chaetoceros neogracile. Conditions: 0.5 mM sugar. As for the experimental part:
as §2
The Antarctic diatom, Chaetoceros neogracile, was cultured as previously described ([21], [50]). FITC-labeled MpPA14 or VcPA14 (FITC-MpPA14 or FITC-VcPA14, 0.2 mg/ml) in the presence or absence of sugars was incubated with diatoms in buffer (50 mM Tris-HCl [pH 9], 300 mM NaCl, and 5 mM CaCl2) with gentle mixing for 2 h. […] This procedure was repeated three times to wash away unbound FITC-MpPA14 before the diatom pellet was finally resuspended in 20 μl buffer, which was then used to make slides for fluorescence microscopy. […]
Images were obtained using an Olympus IX83 inverted fluorescence microscope equipped with an Andor Zyla 4.2 Plus camera. Quantification of the fluorescence intensity was done using Fiji ImageJ. The corrected total cell fluorescence (CTCF) was calculated using the following formula: CTCF = integrated density − (area of selected cell × mean fluorescence of the background) ([60]). Quantification of 30 individual diatom cells was done for each treatment. […]

Where [6] appears, read: GFP-MpPA14 bound to Superdex 200 resin released by free sugar, A280, pH 9, 5 mM CaCl2, – = no detectable binding (footnote a), read-out: Kdapp (apparent dissociation constant).

T1 sequence (A1YIY3 entry or part of it): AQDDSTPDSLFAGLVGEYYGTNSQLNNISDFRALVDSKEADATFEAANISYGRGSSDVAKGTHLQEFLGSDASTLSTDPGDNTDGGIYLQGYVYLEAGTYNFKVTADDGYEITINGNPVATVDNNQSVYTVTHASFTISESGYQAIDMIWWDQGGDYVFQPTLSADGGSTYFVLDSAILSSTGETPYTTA

Regarding `CC(=O)N[C@@H]1[C@@H](O)[C@@H](O)[C@@H](CO)O[C@@H]1O` [N-acetyl-galactosamine], the “prevention of lectin binding to the diatom (in words)” value in test [1] (50 mM sugar, 0.2 mg/ml FITC-MpPA14) is given as “unable to prevent the lectin from binding the diatom”. In test [2] (GFP-MpPA14 bound to Superdex 200 resin released by free sugar, A280, pH 9, 5 mM CaCl2, – = no detectable binding (footnote a)), the “Kdapp (apparent dissociation constant)” value was “no measurable interaction”. Also, in test [2] (setting [6]), the pKd was below 1.74. For the same compound, the “relative binding to VcPA14 (in words)” value in test [3] is on record as “cannot bind”.

`CC(=O)N[C@@H]1[C@@H](O)[C@H](O)[C@@H](CO)O[C@H]1O` [N-acetyl-glucosamine, N-acetylglucosamine]: in test [4], the “ΔH (enthalpy)” value is -15,810 ± 226.1 cal/mol; the “ΔS (entropy)” value is -34.9 cal/ mol/K; the “binding stoichiometry (N value)” value is 1 ± 0.0116; the pKd was 3.77 and ~3.82. Moreover, in test [2], the pKd was 2.97. For the same compound, the “relative binding to VcPA14 (in words)” value in test [3] is recorded as “more strongly than glucose”.

On to `OC[C@H]1OC(O)[C@H](O)[C@@H](O)[C@@H]1O` (stereo partly shown) [Glucose], for which, in test [4], the “ΔH (enthalpy)” value is on record as -10,880 ± 42.71 cal/mol, the “ΔS (entropy)” value is -20.1 cal/ mol/K, the “binding stoichiometry (N value)” value is listed as 0.952 ± 0.0216 and the pKd is 3.46. Also, in test [2], the pKd was 2.87 and 2.85.

Regarding `O[C@H]1[C@H](O)[C@@H](O)[C@H](O)[C@@H](O)[C@H]1O` [Inositol, myo-inositol], in test [2], the pKd is 2.57.

With `O=CC[C@@H](O)[C@H](O)[C@H](O)CO` [2-Deoxy-glucose, 2-deoxy-glucose], the pKd in test [2] was 2.86 and 2.85.

Compound `CO[C@@H]([C@H](O)[C@H](O)CO)[C@@H](O)C=O` [3-O-methyl-glucose, 3-O-methyl-D-glucose] had a pKd in test [2] of 2.24.

Consider `O=C[C@H](O)[C@@H](O)[C@@H](O)[C@H](O)CO` [Galactose, D-galactose], for which the pKd in test [2] was 2.39.

`O=CC[C@H](O)[C@H](O)CO` [2-Deoxy-ribose, 2-deoxy-D-ribose]: the pKd in test [2] is 1.74.

Take `OC1OC[C@H](O)[C@H](O)[C@H]1O` (mixture of isomers) [L-Arabinose]: in test [2], the pKd was 2.66.

With `COC1OC(CO)C(O)C(O)C1O` [Methyl-α-glucose, methyl-α-D-glucose], the pKd in test [2] (setting [6]) is 2.68.

With `C[C@H](O)[C@@H](O)[C@@H](O)[C@H](O)C=O` [L-Fucose, L-fucose], in test [1] (0.1 mM sugar, 0.2 mg/ml FITC-MpPA14), the “fluorescent signal displaced (competitive effect)” value is given as around 40%. In test [1] (0.5 mM sugar added after 1.5 h incubation of lectin with diatoms), the “effect on diatoms precoated with FITC-labeled MpPA14 (in words)” value is “resulted in the dissociation of the lectin from the cells”. The compound also yielded a fluorescent signal displaced in test [1] (0.5 mM sugar, 0.2 mg/ml FITC-MpPA14) of 95%. For the same compound, the “blocking of FITC-VcPA14 binding to C. neogracile (in words)” value in test [5] is reported as “largely blocked”. Moreover, in test [4], the “ΔH (enthalpy)” value is recorded as -11,800 ± 191.8 cal/mol; the “ΔS (entropy)” value was -21.4 cal/ mol/K; the “binding stoichiometry (N value)” value stood at 1.01 ± 0.0131; the pKd was 3.83 and ~3.82. The pKd in test [2] was 3.19.
